# Test results taken from patent US20200181597A1, “Composition and Application of Arginine-depleting Agents for Cancer, Obesity, Metabolic Disorders, and Related Complications and Comorbidities” (THE HONG KONG POLYTECHNIC UNIVERSITY, priority 2018, published 2020).
# Values joined by “and” are separate entries in the source; they are usually repeats but may differ in a detail not shown here. Equal values may be shown once.
# Columns and labels:
# MCF-7 cancer cells = assay: cells; format: cell-based, human; conditions: Homo sapiens
# Experimental: (§1) Breast cancer cell lines (e.g. human MCF-7 and MDA-MB-231 cells) were used in these studies. Cancer cells (5×10^3 cells) were seeded in 96-well plates (TPP) with […] complete medium. The plates were incubated in incubator overnight and the cells were allowed to adhere to the plates. […] Each dosage was triplicated in 3 wells to obtain the average change of cell viability. […] The plates were put back into the incubator and further incubated for 4 h. To dissolve the insoluble compound, formazan, formed by MTT, 100 μl of 10% SDS in 0.01 M HCl was added. The plates were incubated at 37° C. overnight. The color change was measured by spectrophotometer at 570 nm. Control set up (without any drug) was used as base to calculate percentage of cell viability which was used to plot the dose response curve by the software Prism 6.0 (GraphPad) to find the IC50 values. […] CalcuSyn software (Biosoft) was used for calculating the CI values.
# [1] = test system: MDA-MB-231 breast cancer cells; assay: cells; format: cell-based, human; conditions: Homo sapiens
# Experimental: as §1
# HCT116 = assay: cells; conditions: Homo sapiens, HCT-116, 72 h
# Experimental: (§2) The in vitro efficacy of ABD and rhArg fusion protein was tested on human colon cancer cell lines. Human colon cancer cell lines (HCT116, LOVO and HT29) were seeded in 96-well plate at densities of 5×10^3 cells/well. After 1 day of incubation, the culture medium was replaced with medium containing different concentrations (2, 0.4, 0.08, 0.016 and 0.0032 U/ml) of N-ABD094-rhArg (SEQ ID NO: 50). MTT assay was conducted at Day 3 [3 days after N-ABD094-rhArg (SEQ ID NO: 50) treatment] to determine the IC50 values. The culture medium was replaced with MTT solution (1 mg/ml) (Invitrogen) and incubated at 37° C. for 4 h. After incubation, MTT solution was replaced with dimethyl sulfoxide (DMSO), and the absorbance at 570 nm was measured with a reference of 650 nm. The cell viability was determined by dividing the absorbance of N-ABD094-rhArg-treated cells by the average absorbance of untreated cells. […] Three independent sets of experiments (n=3) were performed for each cell line.
# (§3) MTT assay was conducted at Day 3. Three independent sets of experiments (n=3) were performed for each cell line.
# (§4) For drug-combination assay, a non-constant ratio analysis was performed (Hastak et al., 2010, Cancer Res. 70(20):7970-7980). Colon cancer cells were seeded and after 1 day of incubation, the culture medium was replaced with medium containing different concentrations of N-ABD094-rhArg (SEQ ID NO: 50) (2, 0.4, 0.08, 0.016, 0.0032 U/ml) combined with fixed amount of CQ according to its IC50. MTT assay was conducted at Day 3. The combination index (CI) of combined N-ABD094-rhArg (SEQ ID NO: 50) and CQ treatment was analyzed by software CalcuSyn version 2.1. Three independent sets of experiments (n=3) were performed for each cell line.
# HT29 = assay: cells; conditions: Homo sapiens, HT-29, 72 h
# Experimental: as §2, §3, §4
# LOVO = assay: cells; conditions: Homo sapiens, LoVo, 72 h
# Experimental: as §2, §3, §4
# [2] = Arginase specific activity, DAMO colorimetric assay; format: biochemical; conditions: 37° C., pH 7.4, purified preparation
# Excerpt: The arginase activity of the fusion proteins described herein can be substantially the same, lower, or higher than the activity of the arginase polypeptide from which it is derived. One unit of arginase activity is defined as the amount of fusion protein [e.g., BHA (SEQ ID NO; 75), BAH (SEQ ID NO: 76), N-ABD-rhArg (SEQ ID NO: 49), or N-ABD094-rhArg (SEQ ID NO: 50)] or arginase [e.g., BCA (SEQ ID NO: 70)] that catalyzes the production of 1 μmol of urea per min under standard assay conditions. The specific activity of the enzyme is expressed as activity units per mg of protein. Under standard diacetylmonoxime (DAMO) assay conditions (37° C., pH 7.4), the fusion proteins can have a specific activity that is about 5%, about 10%, about 15%, about 20%, about 25% about 30%, about 35% or about 40% lower or higher than the corresponding arginase polypeptide which it incorporates. In certain embodiments, fusion proteins can have a specific activity that is about 5% to about 40%, about 10% to about 40%, about 10% to about 35%, about 10% to about 30%, about 20% to about 30%, about 20% to about 35%, about 15% to about 30%, about 15% to about 25%, or about 10% to about 20% lower or higher than the corresponding arginase polypeptide which it incorporates.
# One unit of enzyme activity is defined as the amount of enzyme (BCA, BHA or BAH) that catalyzes the production of 1 μmol urea per min under standard assay conditions. Specific activity of the enzyme is expressed as activity units per mg of protein.
# Briefly, a serial dilution of 0.3 mL BCA solutions together with 0.15 mL water and 720 mM arginine substrate at pH 7.4 was pre-incubated separately at 37° C. for 10 min. The enzymatic reaction was carried out by adding 0.3 mL arginine substrate to the pre-incubated enzyme solutions. […]
# The urea formed from the above reaction was quantified using the DAMO direct colorimetric method described by World Health Organization (WHO). […] The absorbance at 540 nm was measured. […]
# [3] = DIO mice treated with PEGylated His-rhArg; format: in vivo, C57BL/6J male mice
# Experimental: Production of PEGylated His-rhArg (SEQ ID NO: 101) is described in Example 30. C57BL/6J male mice with pre-existing diet-induced obesity (DIO) received i.p. injection of 300U PEGylated His-rhArg [SEQ ID NO: 101], or saline as vehicle control, at 7-day intervals for 5 weeks, while continuously being fed a HFD. […] Regular monitoring of plasma arginine concentrations confirmed that arginine remained at levels below the detection limit of the Biochrom 30 Amino Acid Analyzer (3 μM) throughout the study.
# [4] = test system: 4T1 breast cancer allograft; assay: 4T1 breast cancer allograft study; format: in vivo, female nude mice; conditions: 500U once per week
# Experimental: In another 4T1 breast cancer allograft study, female nude mice (5-6 weeks of age) were used. They were kept in groups of five per cage and provided food and water ad libitum. Cells of 4T1 breast cancer ([…]) were injected subcultuaneously into the right flank of the mice. […] There were one control group (n=8) and three experimental groups, including 500U PEGylated His-rhArg (SEQ ID NO: 101) (n=8), 500U N-ABD-rhArg (SEQ ID NO: 49) (n=6) and 250U N-ABD-rhArg (SEQ ID NO: 49) (n=8). Mice in the control group were injected with 1×PBS weekly. For the 500U ABD-rhArg group and the 250U ABD-rhArg group, mice were injected with 500U and 250U ABD-rhArg once a week, respectively; one group was injected with 500U PEG-rhArg once per week. The mice were sacrificed after 24 days of inoculation (i.e. 14 days after starting of experiment) because of necrosis of tumor in PBS control group. After sacrificing, the mice were dissected. Tumors were collected from the mice and measured their weight. Lungs were also collected and washed with 1×PBS. The lungs were fixed in Bouin's solution overnight and washed with 1×PBS after fixation. Lung metastatic nodules were counted.
# [5] = MCF7, read-out: Mean of % Cell Viability
# [6] = MDA-MB-231, 72 h, read-out: Mean of % Cell Viability
molecule,measurement,setting,value
"CCN(CC)CCCC(C)Nc1ccnc2cc(Cl)ccc12 (stereo not shown) [CQ, chloroquine]",IC50,MCF-7 cancer cells; MCF7,67.2 µM
same,viability at 0.16 µM,MCF-7 cancer cells; [5],96.3%
same,viability at 0.8 µM,MCF-7 cancer cells; [5],85.9%
same,viability at 4 µM,MCF-7 cancer cells; [5],83.3%
same,viability at 20 µM,MCF-7 cancer cells; [5],72.4%
same,viability at 100 µM,MCF-7 cancer cells; [5],40.7%
same,IC50,[1]; MDA-MB-231,73.4 µM
same,viability at 0.16 µM,[1]; [6],99%
same,viability at 0.8 µM,[1]; [6],98.1%
same,viability at 4 µM,[1]; [6],82.2%
same,viability at 20 µM,[1]; [6],75.2%
same,viability at 100 µM,[1]; [6],43.2%
same,IC50,HCT116,> 100 µM
same,IC50,HT29,71 µM
same,IC50,LOVO,15 µM
"PEGylated His-rhArg (conjugate, PEGylated; His-rhArg, Synthesized in Lab) MHHHHHHMSAKSRTIGIIGAPFSKGQPRGGVEEGPTVLRKAGLLEKLKEQECDVKDYGDLPFADIPNDSPFQIVKNPRSVGKASEQLAGKVAEVKKNGRISLVLGGDHSLAIGSISGHARVHPDLGVIWVDAHTDINTPLTTTSGNLHGQPVSFLLKELKGKIPDVPGFSWVTPCISAKDIVYIGLRDVDPGEHYILKTLGIKYFSMTEVDRLGIGKVMEETLSYLLGRKKRPIHLSFDVDGLDPSFTPATGTPVVGGLTYREGLYITEEIYKTGLLSGLDIMEVNPSLGKTPEEVTRTVNTAVAITLACFGLAREGNHKPIDYLNPPK",Specific activity,[2],245 U/mg
same,Specific activity,[2]; listed as PEGylated His-rhArg batch 3,189 U/mg and 213 U/mg
same,bodyweight after treatment,"[3]; 300U i.p. at 7-day intervals for 5 weeks, HFD continued",30 g
same,"weight of liver, kidney, pancreas and heart vs vehicle-treated DIO mice",[3]; 300U weekly,significantly lower
same,weight of fat pad at visceral and subcutaneous depots,"[3]; 300U weekly, end of study",significantly reduced
same,plasma arginine concentrations throughout the study,"[3]; 300U weekly, Biochrom 30 detection limit",< 3 µM
same,fasting blood glucose levels vs vehicle-treated DIO mice,[3]; two weeks after treatment,lower
same,insulin sensitivity (ITT) vs vehicle-treated DIO mice,[3]; two weeks after treatment,significant increase
same,growth of 4T1 solid tumor,[4],inhibited the growth of the aggressive 4T1 solid tumor significantly
same,metastasis nodules from the lungs vs control group,[4],very significantly reduced
